Test results: patent EP4803083A1, “USE OF PYRROLOTRIAZINE COMPOUND IN PREPARATION OF DRUG FOR PREVENTING AND/OR TREATING FIBROSIS OR RELATED DISEASE THEREOF” (Jumbo Drug Bank Co., Ltd., priority 2023, dated 2025)

Tests used:
Liver spheroids [1] = assay: In vitro 3D liver NASH model: Sirius Red staining; type: cell-based, human; conditions: for Sirius Red staining: fibrosis area in the liver spheroids: compared with the NASH group
Procedure: (§1) Four types of human primary cells were used for modeling, including human primary hepatocytes (PHH), human primary liver sinusoidal endothelial cells (LSEC), human primary hepatic stellate cells (HSC), and human primary Kupffer cells (KC). The total number of cells in each model was 3000.
(§2) The cell connector NAC-Linker A was mixed with hepatocytes and incubated at room temperature for 30 minutes so that NAC-Linker A was fixed on the cell membrane surface. At the same time, the cell connector NAC-Linker B was mixed with the mixture of intrahepatic non-parenchymal cells and incubated at room temperature for 30 minutes so that NAC-Linker B was fixed on the cell membrane surface; (2) after incubation, the hepatocytes carrying NAC-Linker A and the intrahepatic non-parenchymal cells carrying NAC-Linker B were mixed evenly, and 20-30 µl droplets were prepared on the lid of a culture plate using a pipette. PBS solution and liver physiological culture medium (Puheng Biomedicine (Shanghai) Co., Ltd., liver physiological culture medium (human), catalog No. M0001) were added to the wells of the culture plate. The prepared culture plate lid was inverted and placed onto the culture plate to form hanging drops. The culture plate with hanging drops was placed upside down in a 37°C incubator for 12-24 hours. Under the curvature of the lower surface of the hanging drops and gravity, complementary DNA pairing in the NAC-Linker formed connections to generate a 3D liver organoid structure.
(§3) After successful modeling on Day 0, the samples were divided into 5 groups according to different treatments, with 9 samples in each group. […]
Using ImageJ software, the fibrosis area on the slides after Sirius Red staining was quantified, and the ratio of the fibrosis area to the total area of each slide was calculated (Figure 7).

[2] = tested on: bleomycin-induced mouse pulmonary fibrosis model; assay: Bleomycin-induced pulmonary fibrosis model: lung fibrosis grading score (Masson staining, Ashcroft Score); type: in vivo, C57BL/6 mice; conditions: endpoint 28 days, compared with the vehicle-treated group, p value <0.05
Procedure: (§4) Experimental preparation: C57BL/6 mice, 8-10 weeks old, female, body weight approximately 18-22 g. Bleomycin. 1% sodium pentobarbital, sterile normal saline, insulin syringe.
(§5) Drug: p-toluenesulfonate salt of Compound 12 (10 mg/mL). The specific drug preparation method was as follows: 282.87 mg of the p-toluenesulfonate salt powder of Compound 12 was weighed and mixed with 1.050 mL of DMSO solution (preheated to 45°C). The mixture was placed in an ultrasonic water bath until completely dissolved. Subsequently, 19.95 mL of mixed solvent (comprising 1.995 mL of Solutol, 1.995 g of hydroxypropyl-β-cyclodextrin, and 15.96 mL water ) was added. The resulting mixture was sonicated again until completely dissolved to obtain a working solution with a concentration of 10 mg/mL. 1. After the mice begin to adapt to the environment, the experiment is started. The experimental animals are divided into five groups: normal control group, model group (Bleomycin group), low-dose treatment group (25 mg/kg), high-dose treatment group (50 mg/kg), and vehicle treatment group. […]
(§6) 5. […] According to the time point, the mice were euthanized and samples were collected for subsequent experiments; the day of modeling is recorded as day 1. […]

Liver spheroids [3] = assay: In vitro 3D liver NASH model: H&E staining; type: cell-based, human; conditions: compared with the NASH group
Procedure: as §1, §2, §3
Using ImageJ software, the steatotic area on the slides after H&E staining was quantified, and the ratio of the steatotic area to the total area of each slide was calculated (results are shown in Figure 6).

IL-6 = assay: In vitro 3D liver NASH model: cytokine detection (IL-6); type: cell-based, human; conditions: 60 nM; culture medium supernatant; compared with the NASH group; significant difference p<0.05
Procedure: as §1
as §2, with “The culture plate with hanging drops was placed upside down in a 37°C incubator for 12-24 hours. Under the curvature of the lower surface of the hanging drops and gravity, complementary DNA pairing in the NAC-Linker formed connections to generate a 3D liver organoid structure.” left out
The culture medium supernatant was collected and tested using an IL-6 detection kit according to the manufacturer's instructions, with measurement performed using a microplate reader.

Liver spheroids [4] = assay: In vitro 3D liver NASH model: TG detection; type: cell-based, human; conditions: 60 nM; Day 10; compared with the NASH group; p<0.05
Procedure: as §1
as §2, with “Under the curvature of the lower surface of the hanging drops and gravity, complementary DNA pairing in the NAC-Linker formed connections to generate a 3D liver organoid structure.” left out

[5] = tested on: bleomycin-induced mouse pulmonary fibrosis model; assay: Bleomycin-induced pulmonary fibrosis model: lung inflammation scoring (HE staining, Szapiel Score); type: in vivo, C57BL/6 mice; conditions: high-dose group (50 mg/kg); endpoint 28 days; compared with the vehicle treatment group; p value<0.05
Procedure: as §4, §5, §6

COL1 and α-SMA = assay: In vitro 3D liver NASH model: COL1 and α-SMA immunofluorescence staining; type: cell-based, human; conditions: 10 nM, 30 nM and 60 nM groups
Procedure: as §1
as §2, with “The prepared culture plate lid was inverted and placed onto the culture plate to form hanging drops. The culture plate with hanging drops was placed upside down in a 37°C incubator for 12-24 hours. Under the curvature of the lower surface of the hanging drops and gravity, complementary DNA pairing in the NAC-Linker formed connections to generate a 3D liver organoid structure.” left out
Liver spheroids were paraffin-embedded and sectioned, subjected to immunofluorescence staining, mounted, and photographed under a fluorescence microscope, and the results are shown in Figure 5

H&E staining: hepatocyte steatosis and ballooning degeneration (Liver spheroids [3]; 30 nM): significant histological improvement | H&E staining: hepatocyte steatosis and ballooning degeneration (Liver spheroids [3]; 60 nM): significant histological improvement
Structure (SMILES): Cc1cc(Nc2ncnn3cc(OCCN4CCC(F)(F)C4)c(C)c23)c(=O)n2c1C(=O)NC21CCCC1 [Compound 12 p-toluenesulfonate]
Sirius Red staining: degree of liver fibrosis (Liver spheroids [1]; 10 nM, compared with the normal control group (so in the source)): trend of improvement | Sirius Red staining: fibrosis area in the liver spheroids (Liver spheroids [1]; 30 nM): significant differences | Sirius Red staining: fibrosis area in the liver spheroids (Liver spheroids [1]; 60 nM): significant differences | Ashcroft Scores of lung tissue fibrosis ([2]; high-dose group (50 mg/kg)): significantly lower scores | Ashcroft Scores of lung tissue fibrosis ([2]; low-dose group (25 mg/kg)): significantly lower scores | H&E staining: hepatocyte steatosis and ballooning degeneration (Liver spheroids [3]; 10 nM): improvement in hepatocyte steatosis and ballooning degeneration | inflammatory cytokine level (IL-6) (IL-6): improved | TG level (Liver spheroids [4]): significant difference | Szapiel Score of lung tissue fibrosis [5]: significantly lower score | COL1 and α-SMA immunofluorescence staining (COL1 and α-SMA): therapeutic effect on liver fibrosis and exhibits dose dependence
